Test results from US20050119289A1 (priority 2002, published 2005).
≈ marks a conversion by molar mass, not a printed value. Like-named read-outs stand apart in the source and are kept apart here.

Legend:
rA1 adenosine receptor = target: T1, rA1 adenosine receptor (Rattus norvegicus, UniProt P25099); test: Binding affinity at rA1 adenosine receptors
T1 sequence (P25099 1-326): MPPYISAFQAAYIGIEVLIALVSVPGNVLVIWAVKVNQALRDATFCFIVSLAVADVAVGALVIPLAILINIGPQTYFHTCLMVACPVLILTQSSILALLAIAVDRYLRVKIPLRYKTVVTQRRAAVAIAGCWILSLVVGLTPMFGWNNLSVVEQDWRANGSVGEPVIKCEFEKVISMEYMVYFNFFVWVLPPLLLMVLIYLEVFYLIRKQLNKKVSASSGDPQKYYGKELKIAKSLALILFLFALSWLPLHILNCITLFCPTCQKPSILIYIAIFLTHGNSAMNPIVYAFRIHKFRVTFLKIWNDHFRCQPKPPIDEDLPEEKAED

rA2A adenosine receptor = rA2A adenosine receptor (Rattus norvegicus, UniProt P30543); test: Binding affinity at rA2A adenosine receptors
Chain of rA2A adenosine receptor (P30543 whole entry): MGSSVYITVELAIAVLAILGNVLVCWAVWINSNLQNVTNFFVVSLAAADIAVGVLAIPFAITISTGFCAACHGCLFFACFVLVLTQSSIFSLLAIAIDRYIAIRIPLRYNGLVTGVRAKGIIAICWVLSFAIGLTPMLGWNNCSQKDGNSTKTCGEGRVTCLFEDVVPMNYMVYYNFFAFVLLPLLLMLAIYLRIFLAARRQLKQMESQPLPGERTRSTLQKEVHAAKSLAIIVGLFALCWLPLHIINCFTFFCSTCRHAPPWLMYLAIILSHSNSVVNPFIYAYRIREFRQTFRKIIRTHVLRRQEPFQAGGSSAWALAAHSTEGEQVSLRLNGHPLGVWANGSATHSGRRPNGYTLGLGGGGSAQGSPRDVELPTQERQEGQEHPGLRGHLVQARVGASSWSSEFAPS

A375 cells = test: Flow cytometry analysis of G2/M accumulation and sub-G1 apoptosis, A375; assay type: cell-based, human; conditions: for EC50: Homo sapiens, A-375
Procedure: (§1) A375 and NCTC2544 adherent cells were trypsinized, mixed with floating cells, washed with PBS and permeabilised in 70% (vol/vol) ethanol/PBS solution at 4° C. for at least 24 hours. Jurkat, HeL023 and PBMC cells were centrifuged for 10 minutes at 1000×g. The cell pellet was then resuspended and permeabilised in 70% (vol/vol) ethanol/PBS solution at 4° C. for at least 24 hours. The cells were washed with PBS and the DNA was stained with a PBS solution, containing 20 μg/ml of propidium iodide and 100 μg/ml of RNAse, at room temperature for 30 minutes. Cells were analysed by FACScan (Becton-Dickinson) and the content of DNA was evaluated by the Cell-LISYS program (Becton-Dickinson). Cell distribution among cell cycle phases and apoptotic cells was evaluated as previously described (Secchiero et al., 2001). Briefly, the cell cycle distribution is shown as the percentage of cells containing 2n (G1 phase), 4n (G2 and M phases), 4n>x>2n. DNA amount (S phase) judged by propidium iodide staining. The apoptotic population is the percentage of cells with DNA content lower than 2n.
Cell proliferation and apoptosis are quantified by flow cytometer analysis after propidium-iodide (PI) DNA staining. At 24 hours post-exposure, paclitaxel and vindesine induced a dose dependent cell accumulation into G2/M cell cycle phases and a parallel decrease of the G1 population.
(§2) EC50 values were obtained by analysing G2/M accumulation dose response curve. ECMAXvalues were obtained by analysing sub-G1 accumulation dose response curve. Paclitaxel values have units of ng/ml. Vindesine values have units of nM. nd: not done.

HeL023 cells = test: Flow cytometry analysis of G2/M accumulation and sub-G1 apoptosis, HeL023; assay type: cell-based, human; conditions: for EC50: Homo sapiens
Procedure: as §1
(§3) To verify the role of A3 receptor antagonists on paclitaxel and vindesine mediated alteration of cell proliferation and apoptosis, testing was performed with additional cell lines. […] Experimental conditions are similar to those for the A375 cell testing.
as §2

Jurkat cells = test: Flow cytometry analysis of G2/M accumulation and sub-G1 apoptosis, Jurkat; assay type: cell-based, human; conditions: for EC50: Homo sapiens
Procedure: as §1, §3, §2

NCTC2544 cells = test: Flow cytometry analysis of G2/M accumulation and sub-G1 apoptosis, NCTC 2544; assay type: cell-based, human; conditions: for EC50: Homo sapiens, NCTC-2544, NCTC 2544; for ECMAX (sub-G1 accumulation): NCTC 2544
Procedure: as §1, §3, §2

PBMC blasts = test: Flow cytometry analysis of G2/M accumulation, PBMC; assay type: cell-based; conditions: Homo sapiens, vindesine with MRE3008F20 10 μM
Procedure: For multi-drug resistance testing, A375 and NCTC2544 cells are grown adherently and maintained in DMEM and EMEM medium, respectively, containing 10% fetal calf serum, penicillin (100 U/ml), streptomycin (100 μg/ml), L-glutamine (2 mM) at 37° C. in 5% CO2/95% air. HeL023 and Jurkat were grown in RPMI-1640 medium, containing 10% fetal calf serum, penicillin (100 U/ml), streptomycin (100 μg/ml), L-glutamine (2 mM) at 37° C. in 5% CO2/95% air. Cells are passaged two or three times weekly at a ratio between 1:5 and 1:10. Lymphocytes were isolated from buffy coats kindly provided by the Blood Bank of the University Hospital of Ferrara. Blood donated by healthy volunteers, after informed consent for research was obtained. Lymphocytes were isolated by density gradient centrifugation (Ficoll/Histopaque 1.077 g/ml). […]
A375 and NCTC2544 adherent cells were trypsinized, mixed with floating cells, washed with PBS and permeabilised in 70% (vol/vol) ethanol/PBS solution at 4° C. for at least 24 hours. […] Cells were analysed by FACScan (Becton-Dickinson) and the content of DNA was evaluated by the Cell-LISYS program (Becton-Dickinson). Cell distribution among cell cycle phases and apoptotic cells was evaluated as previously described (Secchiero et al., 2001). […]

[1] = test system: human colon carcinoma HT29 cell line; test: MTT growth inhibitory assay, HT29; assay type: cell-based; conditions: Homo sapiens, HT-29, HT29 cells, read-out: IC50 of anti-neoplastic agent used jointly with A3 antagonist
Text: (§4) The cells are sub-cultured twice a week.

[2] = test system: human pancreatic cancer Panc-1 cell line; test: MTT growth inhibitory assay, Panc-1; assay type: cell-based; conditions: PANC-1, Panc-1 cells, read-out: IC50 of anti-neoplastic agent used jointly with A3 antagonist
Procedure: (§5) For chemotherapeutic enhancement testing, the human melanoma A375, human lung carcinoma SKMES, colon carcinoma HT29, and pancreatic cancer Panc-1 cell lines were originally obtained from the ATCC (American Type Culture Collection) and have been maintained at PRC. […] The cells are cultured in a T25 Falcon Tissue Culture flask in a humidified incubator at 37° C. with 5% CO2-95% air. The cells are sub-cultured twice a week. The doubling times of A375, SKMES, HT29, and Panc-1 cultures are approximately 22, 46, 48, and 60 hr, respectively.
(§6) One of the growth inhibitory assays is the MTT assay. Cells (1000-1500 cells/well) are seeded in a 96-well micro culture plate in a total volume of 100 μl/well. After overnight incubation in a humidified incubator at 37° C. with 5% CO2-95% air, chemotherapeutic drug solutions diluted with culture medium at various concentrations are added in the amount of 100 μl to each well. The plates are placed in a humidified incubator at 37° C. with 5% CO2-95% air for 7-10 days. The plates are then centrifuged briefly and 100 μl of the growth medium is removed. Cell cultures are incubated with 50 μl of MTT [3-(4,5-dimethylthiazol-2-yl)-2,5-diphenyl-tetrazolium bromide] reagent (1 mg/ml in Dulbecco's phosphate-buffered saline) for 4 hr at 37° C. The resultant purple formazan precipitate is solubilized with 200 μl of 0.04 N HCl in isopropanol. Absorbance is measured at a wavelength of 595 nm and at a reference wavelength of 655 nm using a Bio-Rad Model 3550 Microplate Reader. Preferably, all tests are run in duplicate for each dose level.
(§7) The EZED50 computer program estimates the concentration of agent that inhibits cell growth by 50% as compared to the control cells. This is termed the IC50 and is determined by curve fitting test data using the following four logistic equation.
(§8) Inhibitory assay testing is also used to determine enhanced therapeutic effects from combining A3 receptor antagonists with other tumor inhibiting agents. The inhibitory cell growth assays are run with and without selected concentrations of A3 receptor antagonists. An enhanced therapeutic effect is present when the IC50 of the tumor inhibiting agent is lower with the A3 receptor antagonist.
(§9) Quantitatively, the enhancement factor (EF) is calculated by dividing the IC50 value of the tumor inhibiting agent for a tumor cell line by the IC50 value of the agent with A3 receptor antagonist for the same cell line: [formula]

[3] = test system: human lung carcinoma SKMES cell line; test: MTT growth inhibitory assay, SKMES; assay type: cell-based; conditions: SKMES cells, read-out: IC50 of anti-neoplastic agent used jointly with A3 antagonist
Text: as §4

[4] = test system: human melanoma A375 cell line
Procedure: as §5, §6, §7, §8, §9

[5] = test system: human melanoma A375 cell line; test: MTT growth inhibitory assay, A375
Procedure: as §5, §6, §7, §8, §9

[6] = docetaxel administered at 100 mg/m^2; cited from earlier work
[7] = vindesine with MRE3008F20 10 μM
[8] = paclitaxel with MRE3008F20 10 μM
[9] = A-375, read-out: IC50 of anti-neoplastic agent used jointly with A3 antagonist, A375 cells, with IL-10 0.5 μg/ml
[10] = A-375, read-out: IC50 of anti-neoplastic agent used jointly with A3 antagonist, A375 cells, with IL-10 5 μg/ml
[11] = A-375, read-out: IC50 of anti-neoplastic agent used jointly with A3 antagonist, A375 cells, with IL-10 […]
[12] = A-375, read-out: IC50 of anti-neoplastic agent used jointly with A3 antagonist, A375 cells, with IL-11 0.5 μg/ml
[13] = A-375, read-out: IC50 of anti-neoplastic agent used jointly with A3 antagonist, A375 cells, with IL-11 5 μg/ml
[14] = A-375, read-out: IC50 of anti-neoplastic agent used jointly with A3 antagonist, A375 cells, with MRE3008F20 1 μg/ml
[15] = A-375, read-out: IC50 of anti-neoplastic agent used jointly with A3 antagonist, A375 cells, with MRE3008F20 3 μg/ml
[16] = A-375, read-out: IC50 of anti-neoplastic agent used jointly with A3 antagonist, A375 cells, with MRE3008F20 10 μg/ml

SMILES | EC50 (A375 cells) | IC50 ([1]; with IL-10 0.5 μg/ml) | IC50 ([1]; with IL-11 0.5 μg/ml) | IC50 ([1]; with MRE3008F20 1 μg/ml) | IC50 ([2]; with IL-10 0.5 μg/ml) | IC50 ([2]; with IL-11 0.5 μg/ml) | IC50 ([2]; with MRE3008F20 1 μg/ml) | IC50 ([3]; with IL-10 0.5 μg/ml) | IC50 ([3]; with IL-11 0.5 μg/ml) | IC50 ([3]; with MRE3008F20 1 μg/ml) | IC50 [4] | IC50 [5, 9] | IC50 [5, 10] | IC50 [5, 11] | IC50 [5, 12] | IC50 [5, 13] | IC50 [5, 14] | IC50 [5, 15] | IC50 [5, 16] | other results
CN(C)c1ccc(NC(=O)Nc2nc3nn(C)cc3c3nc(-c4ccco4)nn23)cc1 [IL-11, N-1-(4-dimethylamino-phenyl)-N′-5-[8-methyl-2-(2-furyl)-pyrazolo[4,3-e]1,2,4-triazolo[1,5-c]pyrimidine]-urea] | – | – | – | – | – | – | – | – | – | – | – | – | – | – | – | – | – | – | – | Ki (rA1 adenosine receptor): > 10000 nM; Ki (rA2A adenosine receptor): > 10000 nM
CC[C@]1(O)C[C@@H]2CN(CCc3c([nH]c4ccccc34)[C@@](C(=O)OC)(c3cc4c(cc3OC)N(C)[C@H]3[C@@](O)(C(N)=O)[C@H](O)[C@]5(CC)C=CCN6CC[C@]43[C@@H]65)C2)C1 [vindesine] | 0.48 ± 0.05 nM | – | – | – | – | – | – | – | – | – | – | – | – | – | – | – | – | – | – | ECMAX, concentration exerting the maximal apoptosis (sub-G1) (A375 cells; A375, vindesine with MRE3008F20 10 μM): 1.66 ± 0.20 nM; EC50 (HeL023 cells; [7]): 0.71 ± 0.08 nM; ECMAX (sub-G1 accumulation) (HeL023 cells; [7]): 1.05 ± 0.09 nM; EC50 (Jurkat cells; [7]): 0.37 ± 0.04 nM; EC50 (NCTC2544 cells; [7]): 0.51 ± 0.06 nM; ECMAX (sub-G1 accumulation) (NCTC2544 cells; [7]): 1.34 ± 0.15 nM; ECMAX (sub-G1 accumulation) (NCTC2544 cells; vindesine, DMSO (no antagonist)): 2.50 ± 0.27 nM; EC50 (PBMC blasts): 0.86 ± 0.09 nM
CC(=O)O[C@H]1C(=O)[C@@]2(C)[C@H]([C@H](OC(=O)c3ccccc3)[C@]3(O)C[C@H](OC(=O)[C@H](O)[C@@H](NC(=O)c4ccccc4)c4ccccc4)C(C)=C1C3(C)C)[C@]1(OC(C)=O)CO[C@@H]1C[C@@H]2O [paclitaxel] | 8.6 ± 0.81 ng/mL | 1 ng/mL (≈ 1.17 nM) | 0.99 ng/mL (≈ 1.16 nM) | 0.85 ng/mL (≈ 0.995 nM) | 1.7 ng/mL (≈ 1.99 nM) | 1.6 ng/mL (≈ 1.87 nM) | 1.5 ng/mL (≈ 1.76 nM) | 1.2 ng/mL (≈ 1.41 nM) | 0.78 ng/mL (≈ 0.913 nM) | 0.8 ng/mL (≈ 0.937 nM) | 0.67 ng/mL (≈ 0.785 nM) | 1.2 ng/mL (≈ 1.41 nM) | 0.5 ng/mL (≈ 0.586 nM) | 0.61 ng/mL (≈ 0.714 nM) | 1.4 ng/mL (≈ 1.64 nM) | 0.4 ng/mL (≈ 0.468 nM) | 0.59 ng/mL (≈ 0.691 nM) | 0.66 ng/mL (≈ 0.773 nM) | 0.54 ng/mL (≈ 0.632 nM) | percentage of apoptotic cells, maximum value (A375 cells; A375, paclitaxel at 5 ng/ml, range on different experiments): 35 to 53%; ECMAX, concentration exerting the maximal apoptosis (sub-G1) (A375 cells; A375, paclitaxel with MRE3008F20 10 μM): 3.04 ± 0.32 ng/mL; ECMAX, concentration exerting the maximal apoptosis (sub-G1) (A375 cells; A375, paclitaxel, DMSO (no antagonist)): 6.00 ± 0.63 ng/mL; EC50, G2/M accumulation (A375 cells; A375, paclitaxel, DMSO (no antagonist), 24 hours): 16.60 ± 2.00 ng/mL (≈ 19.4 nM); EC50 (HeL023 cells; [8]): 4.1 ± 0.4 ng/mL; ECMAX (sub-G1 accumulation) (HeL023 cells; [8]): 3.19 ± 0.30 ng/mL; EC50 (Jurkat cells; [8]): 2.52 ± 0.3 ng/mL; ECMAX (sub-G1 accumulation) (Jurkat cells; [8]): 2.29 ± 0.31 ng/mL; EC50 (NCTC2544 cells; [8]): 2.41 ± 0.3 ng/mL; ECMAX (sub-G1 accumulation) (NCTC2544 cells; [8]): 2.55 ± 0.24 ng/mL; IC50 ([5]; A-375, read-out: IC50 of paclitaxel plus MRE3008F20, IL-10, and IL-11, A375, with 10 μg/ml of MRE3008F20 or 5 μg/ml of IL-10 or IL-11): 0.4 to 0.54 ng/mL
CC(=O)O[C@@]12CO[C@@H]1C[C@H](O)[C@@]1(C)C(=O)[C@H](O)C3=C(C)[C@@H](OC(=O)[C@H](O)[C@@H](NC(=O)OC(C)(C)C)c4ccccc4)C[C@@](O)([C@@H](OC(=O)c4ccccc4)[C@H]21)C3(C)C [docetaxel] | – | 0.0033 ng/mL (≈ 0.00408 nM) | 0.0028 ng/mL (≈ 0.00347 nM) | 0.0012 ng/mL (≈ 0.00149 nM) | 0.47 ng/mL (≈ 0.582 nM) | 0.5 ng/mL (≈ 0.619 nM) | 0.38 ng/mL (≈ 0.47 nM) | 0.17 ng/mL (≈ 0.21 nM) | 0.25 ng/mL (≈ 0.309 nM) | 0.13 ng/mL (≈ 0.161 nM) | 0.005 ng/mL (≈ 0.00619 nM) | 0.0025 ng/mL (≈ 0.00309 nM) | 0.0072 ng/mL (≈ 0.00891 nM) | 0.0023 ng/mL (≈ 0.00285 nM) | 0.0087 ng/mL (≈ 0.0108 nM) | 0.0071 ng/mL (≈ 0.00879 nM) | 0.0006 ng/mL (≈ 0.000743 nM) | 0.0055 ng/mL (≈ 0.00681 nM) | 0.0072 ng/mL (≈ 0.00891 nM) | acute hypersensitivity reaction, patients [6]: 13%; severe hypersensitivity reaction, patients [6]: 1.2%
